According to patent publication US20230263822A1, “MODULATION OF FACTOR 11 EXPRESSION” (Ionis Pharmaceuticals, Inc., priority 2008, published 2023):
Read-outs that look alike come from different tables or passages of the source. e = 2'-O-(2-methoxyethyl) (MOE); d = 2'-deoxy (DNA)

Experiments:
[1] = mouse, in vivo, sc, 50 mg/kg
[2] = mouse, in vivo, sc, 50 mg/kg; remark: listed apart in the source
[3] = mouse, in vivo, sc, 50 mg/kg; remark: listed apart in the source
[4] = rat, in vivo, sc, 50 mg/kg
[5] = rat, in vivo, sc, 50 mg/kg; remark: listed apart in the source
[6] = rat, in vivo, sc, 50 mg/kg; remark: listed apart in the source

Row | Substance | ALT [1] [IU/L] | AST [1] [IU/L] | Bilirubin [1] [mg/dL] | Cholesterol [1] [mg/dL] | BUN [2] [mg/dL] | HCT [3] [%] | Lymphocyte [3] [cells/μL] | Neutrophil [3] [cells/μL] | Platelets [3] | RBC [3] | WBC [3] | hemoglobin [3] [g/dL] | monocytes [3] [cells/μL] | ALT [4] [IU/L] | AST [4] [IU/L] | Albumin [4] | Bilirubin [4] [mg/dL] | BUN [5] [mg/dL] | Creatinine [5] [mg/dL] | Total urine protein [5] [mg/dL] | other results
1 | ISIS 416866: MOE gapmer, nucleobases 1275 to 1318 of SEQ ID NO: 1 (Table 8) (antisense CTGGCAGCGGACGGCATTGG; MOE gapmer, wing and gap sizes not given here) | 36 | 120 | 0.29 | 113 | 22 | 51 | 4621 | 1201 | 1045 10^3/μL | 9 10^6/μL | 6 10^3/μL | 15 | 211 | 41 | 78 | 4 | 0.16 | 22 | 85 | 486 | Urine protein/creatinine ratio [5]: 6.2; HCT [6]: 44%; Lymphocyte [6]: 16834; Neutrophil [6]: 1916; Platelets [6]: 900; RBC [6]: 7.8 10^6/μL; WBC [6]: 20 10^3/μL; hemoglobin [6]: 14.0 g/dL
2 | ISIS 416867: MOE gapmer, nucleobases 1275 to 1318 of SEQ ID NO: 1 (Table 8) (antisense ACTGGCAGCGGACGGCATTG; MOE gapmer, wing and gap sizes not given here) | 45 | 82 | 0.21 | 144 | 20 | 47 | 6078 | 1404 | 1006 10^3/μL | 10 10^6/μL | 8 10^3/μL | 14 | 188 | 47 | 126 | 4 | 0.17 | 22 | 70 | 217 | Urine protein/creatinine ratio [5]: 3.1; HCT [6]: 45%; Lymphocyte [6]: 10405; Neutrophil [6]: 3044; Platelets [6]: 705; RBC [6]: 7.8 10^6/μL; WBC [6]: 14 10^3/μL; hemoglobin [6]: 14.0 g/dL
3 | ISIS 413481: 5-10-5 MOE gapmer GGTGCACAGTTTCTGGCAGG (sugars from the 5' end e5 d10 e5, backbone and methylation of C not given here) | 85 | 143 | 0.18 | 153 | 23 | 45 | 4329 | 1904 | 841 10^3/μL | 9 10^6/μL | 7 10^3/μL | 13 | 204 | 54 | 80 | 4 | 0.22 | 26 | 45 | 148 | Urine protein/creatinine ratio [5]: 3.6; HCT [6]: 43%; Lymphocyte [6]: 12707; Neutrophil [6]: 1046; Platelets [6]: 552; RBC [6]: 7.5 10^6/μL; WBC [6]: 14 10^3/μL; hemoglobin [6]: 14.2 g/dL
4 | ISIS 416856: MOE gapmer, nucleobases 1275 to 1318 of SEQ ID NO: 1 (Table 8) (antisense GGCATTGGTGCACAGTTTCT; MOE gapmer, wing and gap sizes not given here) | 130 | 129 | 0.23 | 109 | 21 | 47 | 3622 | 1292 | 753 10^3/μL | 9 10^6/μL | 5 10^3/μL | 14 | 151 | 123 | 222 | 4 | 0.13 | 23 | 48 | 128 | Urine protein/creatinine ratio [5]: 2.7; HCT [6]: 43%; Lymphocyte [6]: 14328; Neutrophil [6]: 3280; Platelets [6]: 740; RBC [6]: 7.7 10^6/μL; WBC [6]: 19 10^3/μL; hemoglobin [6]: 14.1 g/dL
5 | ISIS 416848: MOE gapmer, nucleobases 1275 to 1318 of SEQ ID NO: 1 (Table 8) (antisense CACAGTTTCTGGCAGGCCTC; MOE gapmer, wing and gap sizes not given here) | 153 | 153 | 0.19 | 151 | 23 | 47 | 5268 | 1264 | 953 10^3/μL | 9 10^6/μL | 7 10^3/μL | 14 | 180 | 89 | 236 | 3 | 0.14 | 26 | 64 | 231 | Urine protein/creatinine ratio [5]: 3.9; HCT [6]: 35%; Lymphocyte [6]: 14316; Neutrophil [6]: 1874; Platelets [6]: 384; RBC [6]: 6.0 10^6/μL; WBC [6]: 17 10^3/μL; hemoglobin [6]: 11.1 g/dL
6 | ISIS 416861: MOE gapmer, nucleobases 1275 to 1318 of SEQ ID NO: 1 (Table 8) (antisense GCGGACGGCATTGGTGCACA; MOE gapmer, wing and gap sizes not given here) | 38 | 85 | 0.27 | 133 | 23 | 48 | 5119 | 1122 | 836 10^3/μL | 9 10^6/μL | 7 10^3/μL | 14 | 219 | 89 | 154 | 5 | 0.15 | 22 | 39 | 205 | Urine protein/creatinine ratio [5]: 5.1; HCT [6]: 45%; Lymphocyte [6]: 12865; Neutrophil [6]: 1813; Platelets [6]: 1008; RBC [6]: 7.7 10^6/μL; WBC [6]: 15 10^3/μL; hemoglobin [6]: 14.6 g/dL
